Experimental data: patent US6828315B1, “1-Amino triazoloc4,3-a! quinazoline-5-ones and/or -5-thiones inhibiting phosphodiesterase IV” (Warner-Lambert LLC, priority 1999, dated 2004)
pIC50: −log10 of the molar value.

Legend:
[1] = molecular target: type 4 phosphodiesterases (PDE4); assay: Inhibition of the phosphodiesterase (PDE4), enzymatic preparation from line U937; format: biochemical; conditions: PDE4 from cytosolic preparation of human cell line U937
Description: The capacity of the formula (I) compounds of the invention to inhibit the cyclic nucleotide phosphodiesterases is evaluated by their Cl50 measurement (necessary concentration to inhibit 50% of enzymatic activity).
The type 4 phosphodiesterases are obtained from a cytosolic preparation extracted from the human origin cellular line U937 according to a method adapted from T. J. Torphy and al., 1992, J.Pharm.Exp. Ther. 263: 1195-1205
The other classes of phosphodiesterases are obtained after partial purification FPLC on Mono Q column. (anion exchange column) according to a method adapted from Lavan B. E., Lakey T., Houslay M. D. Biochemical Pharmacology, 1989, 38(22), 4123-4136., and from Silver P. J and al., 1988, Eur.J. Pharmacol. 150: 85-94, either, from human origin cellular lines for PDE 1 (monocytar line TPH1) and PDE5 (line MCF7 issued from an adenocarcinoma), or from dog aorta for PDE 3, or for the human PDE3A, from gene cloning in insect cells SF21 in baculovirus, according to a method adapted from Luckow, V. A. and al., 1991 in Recombinant DNA Technology&Applications.,eds. Prokop, Bajpai,R. K.&Ho,C. S., pp97-152. The enzymatic activity measurement of the different PDE classes, and in particular the PDE 4, is performed according to a method adapted from W. J. Thompson and al. 1979, Advances in Cyclic Nucleotide Research, Vol. 10: 69-92, ed. G. Brooker and al. Raven Press, NY.
For the Cl50 determination, the enzymatic activity is measured in the presence of inhibitor within concentration margins of 0.1 to 100 μM.
The following table illustrates the PDE4 inhibitory activity from enzymatic preparation obtained from the line U937.

SMILES | pIC50 [1] | melting point [°C]
O=c1c2cc(Cl)ccc2n2c(N3CCCCCC3)nnc2n1Cc1ccc(Cl)cc1 [Compound 11, 1-(azepan-1-yl)-7-chloro-4-(4-chlorobenzyl)-4H-[1,2,4]triazolo[4,3-a]quinazolin-5-one] | 7.10 | 166
O=c1c2cc(Cl)ccc2n2c(N3CCCCCC3)nnc2n1Cc1ccc(F)cc1 [Compound 13, 1-(azepan-1-yl)-7-chloro-4-(4-fluorobenzyl)-4H-[1,2,4]triazolo[4,3-a]quinazolin-5-one] | 7.22 | 150
COc1ccc(Cn2c(=O)c3cc(Cl)ccc3n3c(N4CCCCCC4)nnc23)cc1OC [Compound 20, 1-(azepan-1-yl)-7-chloro-4-(3,4-dimethoxybenzyl)-4H-[1,2,4]triazolo[4,3-a]quinazolin-5-one] | 7.40 | 172
O=c1c2cc(Cl)ccc2n2c(N3CCCCCC3)nnc2n1Cc1cccnc1 [Compound 22, 1-(azepan-1-yl)-7-chloro-4-(3-pyridylmethyl)-4H-[1,2,4]triazolo[4,3-a]quinazolin-5-one] | 6.39 | 155
O=c1c2cc(Br)ccc2n2c(N3CCCCCC3)nnc2n1Cc1ccc(Cl)cc1 [Compound 32, 1-(azepan-1-yl)-7-bromo-4-(4-chloro-benzyl)-4H-[1,2,4]triazolo[4,3-a]quinazolin-5-one] | 7.28 | 179
N#Cc1ccc(Cn2c(=O)c3cc(Br)ccc3n3c(N4CCCCCC4)nnc23)cc1 [Compound 34, 4-(1-Azepan-1-yl-7-bromo-5-oxo-5H-[1,2,4]triazolo[4,3-a]quinazolin-4-ylmethyl)-benzonitrile] | 7.25 | 190
O=c1c2cc(Br)ccc2n2c(N3CCCCCC3)nnc2n1CC=Cc1ccccc1 [Compound 37, 1-(azepan-1-yl)-7-bromo-4-(3-phenylallyl)-4H-[1,2,4]triazolo[4,3-a]quinazolin-5-one] | 7.82 | 155
O=c1c2cc(Br)ccc2n2c(N3CCCCCC3)nnc2n1C/C=C/c1cccnc1 [Compound 40, 1-Azepan-1-yl-7-bromo-4-((E)-3-pyridin-3-yl-allyl)-4H-[1,2,4]triazolo[4,3-a]quinazolin-5-one] | 7.85 | 185
O=c1c2cc(Br)ccc2n2c(N3CCCCCC3)nnc2n1CC=Cc1ccncc1 [Compound 41, 1-Azepan-1-yl-7-bromo-4-(3-pyridin-4-yl-allyl)-4H-[1,2,4]triazolo[4,3-a]quinazolin-5-one] | 7.74 | 216
Cc1ccc(Cn2c(=O)c3cc(Br)ccc3n3c(N4CCCC4)nnc23)cc1 [Compound 42, 7-Bromo-4-(4-methyl-benzyl)-1-pyrrolidin-1-yl-4H-[1,2,4]triazolo[4,3-a]quinazolin-5-one] | 7.62 | 215
O=c1c2cc(Br)ccc2n2c(N3CCCC3)nnc2n1Cc1ccc(Cl)cc1 [Compound 43, 7-Bromo-4-(4-chloro-benzyl)-1-pyrrolidin-1-yl-4H-[1,2,4]triazolo[4,3-a]quinazolin-5-one] | 7.52 | 105
O=c1c2cc(Br)ccc2n2c(N3CCCC3)nnc2n1Cc1ccc(F)cc1 [Compound 44, 7-Bromo-4-(4-fluoro-benzyl)-1-pyrrolidin-1-yl-4H-[1,2,4]triazolo[4,3-a]quinazolin-5-one] | 7.05 | 166
COC(=O)c1ccc(Cn2c(=O)c3cc(Br)ccc3n3c(N4CCCC4)nnc23)cc1 [Compound 47, 4-(7-Bromo-5-oxo-1-pyrrolidin-1-yl-5H-[1,2,4]triazolo[4,3-a]quinazolin-4-ylmethyl)-benzoic acid methyl ester] | 7.30 | 205
O=c1c2cc(Br)ccc2n2c(N3CCCC3)nnc2n1Cc1ccc([N+](=O)[O-])cc1 [Compound 48, 7-Bromo-4-(4-nitro-benzyl)-1-pyrrolidin-1-yl-4H-[1,2,4]triazolo[4,3-a]quinazolin-5-one] | 7.60 | 200
COc1ccc(Cn2c(=O)c3cc(Br)ccc3n3c(N4CCCC4)nnc23)cc1 [Compound 49, 7-Bromo-4-(4-methoxy-benzyl)-1-pyrrolidin-1-yl-4H-[1,2,4]triazolo[4,3-a]quinazolin-5-one] | 7.10 | 169
CC(=O)Oc1ccc(Cn2c(=O)c3cc(Br)ccc3n3c(N4CCCC4)nnc23)cc1 [Compound 50, Acetic acid 4-(7-bromo-5-oxo-1-pyrrolidin-1-yl-5H-[1,2,4]triazolo[4,3-a]quinazolin-4-ylmethyl)-phenyl ester] | 7.46 | 195
O=c1c2cc(Br)ccc2n2c(N3CCCC3)nnc2n1Cc1ccc(O)cc1 [Compound 51, 7-Bromo-4-(4-hydroxy-benzyl)-1-pyrrolidin-1-yl-4H-[1,2,4]triazolo[4,3-a]quinazolin-5-one] | 7.57 | 288
COc1ccc(Cn2c(=O)c3cc(Br)ccc3n3c(N4CCCC4)nnc23)cc1OC [Compound 52, 7-Bromo-4-(3,4-dimethoxy-benzyl)-1-pyrrolidin-1-yl-4H-[1,2,4]triazolo[4,3-a]quinazolin-5-one] | 7.52 | 151
O=c1c2cc(Br)ccc2n2c(N3CCCC3)nnc2n1CC=Cc1ccccc1 [Compound 57, 1-(pyrrolidin-1-yl)-7-bromo-4-(3-phenylallyl)-4H-[1,2,4]triazolo[4,3-a]quinazolin-5-one] | 7.85 | 152 to 155
O=c1c2cc(Br)ccc2n2c(N3CCCC3)nnc2n1C/C=C/c1ccc(Cl)cc1 [Compound 59, 7-Bromo-4-[(E)-3-(4-chloro-phenyl)-allyl]-1-pyrrolidin-1-yl-4H-[1,2,4)triazolo[4,3-a]quinazolin-5-one] | 7.05 | 187
COc1ccc(C=CCn2c(=O)c3cc(Br)ccc3n3c(N4CCCC4)nnc23)cc1 [Compound 60, 7-Bromo-4-[3-(4-methoxy-phenyl)-allyl]-1-pyrrolidin-1-yl-4H-[1,2,4]triazolo[4,3-a]quinazolin-5-one] | 7.30 | 171
O=c1c2cc(Br)ccc2n2c(N3CCCC3)nnc2n1CC=Cc1cccnc1 [Compound 61, 7-Bromo-4-(3-pyridin-3-yl-allyl)-1-pyrrolidin-1-yl-4H-[1,2,4]triazolo[4,3-a]quinazolin-5-one] | 7.96 | 102
O=c1c2cc(Br)ccc2n2c(N3CCCC3)nnc2n1C/C=C/c1ccncc1 [Compound 62, 7-Bromo-4-((E)-3-pyridin-4-yl-allyl)-1-pyrrolidin-1-yl-4H-[1,2,4]triazolo[4,3-a]quinazolin-5-one] | 7.28 | 167
COc1ccc(Cn2c(=O)c3cc(Br)ccc3n3c(N4CCCCC4)nnc23)cc1OC [Compound 75, 7-Bromo-4-(3,4-dimethoxy-benzyl)-1-piperidin-1-yl-4H-[1,2,4]triazolo[4,3-a]quinazolin-5-one] | 7.11 | 178
Cc1ccc(Cn2c(=O)c3cc(Br)ccc3n3c(N(C)C)nnc23)cc1 [Compound 78, 7-Bromo-1-dimethylamino-4-(4-methyl-benzyl)-4H-[1,2,4]triazolo[4,3-a]quinazolin-5-one] | 7.42 | 223
CN(C)c1nnc2n(Cc3ccc(O)cc3)c(=O)c3cc(Br)ccc3n12 [Compound 80, 7-Bromo-1-dimethylamino-4-(4-hydroxy-benzyl)-4H-[1,2,4]triazolo[4,3-a]quinazolin-5-one] | 7.14 | 284
COC(=O)c1ccc(Cn2c(=O)c3cc(Br)ccc3n3c(N(C)C)nnc23)cc1 [Compound 81, 4-(7-Bromo-1-dimethylamino-5-oxo-5H-[1,2,4]triazolo[4,3-a]quinazolin-4-ylmethyl)-benzoic acid methyl ester] | 7.80 | 197
CN(C)c1nnc2n(Cc3ccc(CC#N)cc3)c(=O)c3cc(Br)ccc3n12 [Compound 83, [4-(7-Bromo-1-dimethylamino-5-oxo-5H-[1,2,4]triazolo[4,3-a]quinazolin-4-ylmethyl)-phenyl]-acetonitrile] | 7.92 | 230
CN(C)c1nnc2n(CC#Cc3ccccc3)c(=O)c3cc(Br)ccc3n12 [Compound 89, 7-Bromo-1-dimethylamino-4-(3-phenyl-prop-2-ynyl)-4H-[1,2,4]triazolo[4,3-a]quinazolin-5-one] | 7.57 | 159
Cc1ccc2c(c1)c(=O)n(CC=Cc1ccccc1)c1nnc(N3CCCCCC3)n21 [Compound 92, 1-Azepan-1-yl-7-methyl-4-(3-phenyl-allyl)-4H-[1,2,4]triazolo[4,3-a]quinazolin-5-one] | 7.52 | 195
